From patent US20220096592A1, “PIC1 VARIANTS WITH IMPROVED SOLUBILITY AND METHODS OF USING THE SAME” (priority 2019, published 2022)
“Also recorded” adds a separate entry of the source.

Key:
[1] = tested on: complement-mediated hemolysis of the patient's erythrocytes; experiment: hemolytic complement assay with plasma and erythrocytes of a DHTR patient; assay type: cell-based, human; settings: complement permissive buffer GVBS++, increasing concentrations, FIG. 13; listed as PIC1
Description: Discarded de-identified blood was obtained from routine medical management blood draws from the patient prior to treatment with eculizumab. […] Complement permissive GVBS^++ buffer is veronal-buffered saline with 0.1% gelatin, 0.15 mM CaCl2, and 1 mM MgCl2 [11]. Complement inhibitory buffer GVBS^−− is a veronal-buffered saline with 0.1% gelatin and 10 mM EDTA. Approximately 5×10^7 washed erythrocytes were incubated with 20% plasma in a reaction volume of 0.15 ml for 1 hour at 37° C.
Erythrocytes were sedimented by centrifugation at 1,500×g for 5 minutes and the supernatant was then recovered. The supernatant was measured on a Bio Tek Synergy HT plate reader spectrophotometer for absorption at 412 nm. Hemolysis was measured by quantitation of free hemoglobin on the spectrophotometer at 412 nm.

human platelets = experiment: viability of antibody-sensitized human platelets in normal human serum (Presto Blue); assay type: cell-based
Description: For in vitro experiments, platelets were stained with PrestoBlue Cell Viability Reagent as per manufacturer's recommendations. For in vivo experiments, platelets were stained with PKH26 Red Fluorescent Cell Dye as per manufacturer's recommendations.
For experiments sensitizing platelets with human anti-platelet antibody, purified platelets were treated with 4% ITP sera for 15 minutes at 30° C. before adding 2% normal human complement sufficient sera and incubating for 30 minutes at 37° C. For samples containing PIC1, sera and PIC1 were pre-incubated for 5 minutes before combining with sensitized platelets. Samples were then spun and supernatant was removed for C5a analysis by ELISA. A C5a ELISA kit (R&D Systems) was used per manufacturer's instructions. The cells were washed once with GVBS^−− and once with water to lyse the platelets. The remaining cell pellet was treated with 25 mM methylamine for 1 hour at 37° C., spun, and the supernatant was analyzed for iC3b by ELISA. The ELISA for iC3b was performed as previously described, utilizing a goat anti-human C3 antibody (Complement Technology, Tyler, Tex.) for capture, a mouse anti-human iC3b antibody (Quidel, San Diego, Calif.) for probing, and a goat anti-mouse HRP (Sigma-Aldrich, St Louis, Mo.) for detection.
Cell viability of the platelets was measured by utilizing the vital dye, Presto Blue. […] These effects can be largely reversed in the presence of a classical complement pathway inhibitor.

[2] = water, without PEGylation or DMSO
Description: Sarcosine variants and PEG were dissolved in water and the pH was adjusted with NaOH. PA was dissolved in DMSO and then brought up to the final concentration with water resulting in 30% DMSO and pH adjusted. Antibody sensitized sheep erythrocytes (EA), purified C1q and factor B-depleted human sera were purchased from Complement Technology (Tyler, Tex.). Purified myeloperoxidase was purchased from Lee BioSolutions (Maryland Heights, Mo.) and tetramethylbenzidine (TMB) and PicoGreen were purchased from Thermo Fisher (Waltham Mass.).
(PA), peptide derivatives were synthesized with sarcosine residues substituted at all 15 positions. Also included is a peptide in which the vicinal cysteines at positions 9 and 10 (C9,C10) were replaced with a single sarcosine residue.

H2N-IALILEPICCQERAA-dPEG24 (H-IALILEPICCQERAA-dPEG24; cysteine pairing not given here) [PA-dPEG24]
hemolysis of patient erythrocytes by patient plasma [1]: statistically significant dose-dependent decrease of hemolysis; also recorded: inhibited hemolysis to the background signal; also recorded: completely blocked at higher doses | increase in platelet viability, in words (human platelets; 1.5 mM, P=0.031): Significant increases in platelet viability | increase in platelet viability (human platelets; 3.0 mM, P=0.003): 53% | platelet viability, dose response (human platelets; sensitizing antibody and NHS, increasing concentrations, FIG. 6C): Platelet viability dose-dependently increased | H2O Soluble [2]: No
